# Reference: publication PMC10650955, “α-Aminophosphonate inhibitors of metallo-β-lactamases NDM-1 and VIM-2” (RSC Medicinal Chemistry, 2023)
# Structures can show the parent of a compound that is named as a salt.
# Columns and labels:
# NDM-1 = molecular target: T1, NDM-1 (Klebsiella pneumoniae, UniProt C7C422); assay: Dose rate inhibition studies for IC50 determination, NDM-1 enzymatic assay; format: biochemical; conditions: Enzyme IC50 NDM-1, 10 nM NDM-1, 100 μM ZnCl2, imipenem substrate, inhibitor 0-800 μM, 3 parallel measurements; N.I. = no enzyme inhibitory activity observed
# T1 construct: made in house
# T1 sequence (C7C422 29-270 limits assumed): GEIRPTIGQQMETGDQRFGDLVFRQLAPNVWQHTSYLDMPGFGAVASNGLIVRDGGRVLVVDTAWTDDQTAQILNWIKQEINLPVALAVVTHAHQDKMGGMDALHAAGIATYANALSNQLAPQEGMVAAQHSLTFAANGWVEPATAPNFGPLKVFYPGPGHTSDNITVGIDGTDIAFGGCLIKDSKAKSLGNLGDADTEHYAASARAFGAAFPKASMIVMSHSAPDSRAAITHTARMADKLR
# Experimental: (§1) The […] synthesized compounds 5a–l were tested for their inhibitory activities against NDM-1, VIM-2 (Table 1), and GIM-1 in an in vitro enzymatic assay (ESI ^†).[41] The inhibitory activity was measured using enzyme concentrations of 0.1 nM VIM-2, 10 nM NDM-1 or 1 nM GIM-1, with an excess Zn(II) (100 μM, see Experimental methods), with inhibitor compounds with concentrations from 0 to 800 μM. Each data point was measured in triplicates. […] This is in line with previous reports.[42,43]
# (§2) A 100 μl solution with buffer (50 mM HEPES (pH 7.2), 100 μM ZnCl2, 2.5% DMSO), purified enzyme (0.1 nM VIM-2, 10 nM NDM-1 or 1 nM GIM-1) and 800–0 μM inhibitor was incubated in a 96 well plate at 25 °C for 5 min. In addition, the enzyme buffer contained 400 μg ml^−1 bovine serum albumin (BSA) to prevent protein unfolding and loss of activity due to low concentrations.[67,68] 100 μM of the reporter substrate nitrocefin (VIM-2, GIM-1) or imipenem (NDM-1) was added to the enzyme–inhibitor solution and the increase in absorbance at 482 nm (nitrocefin) or 300 nm (imipenem) was recorded on a Spectramax M4 spectrophotometer (Molecular Devices). Each data point was performed in triplicates and the initial velocity for each inhibitor concentration was analyzed by a log [inhibitor] vs. response curve fitting to calculate IC50 in GraphPad Prism 9.2 software.
# 15N-labelled NDM-1 = molecular target: T2, 15N-labelled NDM-1 (Klebsiella pneumoniae, UniProt C7C422); assay: 1H,15N HSQC NMR chemical shift perturbation titration, NDM-1; format: binding
# T2 construct: made in house
# T2 sequence (C7C422 29-270 limits assumed): as above
# Experimental: (§3) Solution NMR spectroscopy is a powerful tool to assess protein–ligand interactions under close to physiological conditions.[47] We, therefore, performed NMR chemical shift perturbation (CSP, for details, see section S8, ESI ^†) experiments to identify the amino acid residues of NDM-1 and VIM-2 that are involved in inhibitor binding, making use of the previously published protein assignments.[48,49] Titrations were conducted using ^15N-labelled proteins with 0, 0.5, 1, 2, 4, 8, and 16 equiv. of 5 inhibitors for NDM-1 and of 7 inhibitors for VIM-2.
# (§4) For the titrations, ^15N-labelled NDM-1 and ^15N-labelled VIM-2 (250 μM), and titrated ligands (0.5 equiv. in 1 μL) were prepared in the same buffer as the protein (20 mM KPO4, 0.1 mM ZnCl2, pH 7.0 with 10% D2O and 2.5% DMSO-d6). ^1H,^15N HSQC spectra were acquired with 128 × 1024 complex points (F1 × F2) and spectral width of 9090 × 2740 Hz on ^15N-labeled NDM-1/VIM-2 and with every titration step up to 1 : 16 ratio between protein : ligand (0, 0.5, 1, 2, 4, 8, and 16 equiv. of ligand). All experiments were recorded on a Bruker 600 MHz spectrometer at 310 K equipped with a 5 mm TCI cryogenic probe. The NMR data were processed on the MestReNova software with the Mnova Binding plugin. The weighted average chemical shift perturbations (CSP) for the backbone amides were calculated from the observed chemical shift differences in the proton and nitrogen dimensions using the equation (chemical shift scaling factors: FH = 1, FN = 0.156) CSP = Δδ1H,15N = [drawing 13] .
# (§5) 7. Chemical shift perturbation histograms
# (§6) Chemical shift perturbation was calculated according equation (1) 2
# (§7) CSP = Δδ(1H,15N) = √(Δδ1H2 + (1⁄R × Δδ15N2) Rscale = 6.5 (1)
# (§8) Where Δδ1H is the chemical shift change for proton dimension, Δδ15N is the chemical shift change for nitrogen dimension, Rscale is a
# (§9) The chemical shift perturbations (CSP) were classified as significant (SSP) when the observed Δδ(1H,15N) was greater than the population
# (§10) mean plus the standard deviation (µ+1σ) – solid line; (µ+2σ) – dashed line, and (µ+3σ) – dashed line.
# (§11) Further on, Kd was calculated according: 3
# (§12) ([P]+[L]+Kd)− √([P]+[L]+Kd)2−4[P][L]
# (§13) ΔδmaxΔδobs = Δδmax 2[P] (2)
# (§14) Where Kd is the dissociation constant, [P] and [L] are protein and ligand concentrations, respectively. Δδmax were estimated in
# (§15) MestReNova by extrapolation of the obser ved chemical shift differences Δδobs.
# VIM-2 = molecular target: T3, VIM-2 (Escherichia coli, UniProt Q5U7L7); assay: Dose rate inhibition studies for IC50 determination, VIM-2 enzymatic assay; format: biochemical; conditions: inhibitor 0-800 μM, 3 parallel measurements, N.I. = no enzyme inhibitory activity observed
# T3 construct: made in house
# Experimental: as §1, §2
# 15N-labelled VIM-2 = molecular target: T4, 15N-labelled VIM-2 (Escherichia coli, UniProt Q5U7L7); assay: 1H,15N HSQC NMR chemical shift perturbation titration, VIM-2; format: binding; conditions: VIM-2 Kd, 0-16 equiv. ligand, pH 7.0, 310 K
# T4 construct: made in house
# Experimental: as §3, §4, §5, §6, §7, §8, §9, §10, §11, §12, §13, §14, §15
# [1] = Estimated binding constant (Kd), residue 119T, Table S5, per-residue fit, NDM-1 119T
# [2] = Estimated binding constant (Kd), residue 124D, Table S5, per-residue fit, NDM-1 124D
# [3] = Estimated binding constant (Kd), residue 127G, Table S5, per-residue fit, NDM-1 127G
# [4] = Estimated binding constant (Kd), residue 159H, Table S5, per-residue fit, NDM-1 159H
# [5] = Estimated binding constant (Kd), residue 160S, Table S5, per-residue fit, NDM-1 160S
# [6] = Estimated binding constant (Kd), residue 188G, Table S5, per-residue fit, NDM-1 188G
# [7] = Estimated binding constant (Kd), residue 194I, Table S5, per-residue fit, NDM-1 194I
# [8] = Estimated binding constant (Kd), residue 197G, Table S5, per-residue fit, NDM-1 197G
# [9] = Estimated binding constant (Kd), residue 205F, Table S5, per-residue fit, NDM-1 205F
# [10] = Estimated binding constant (Kd), residue 214K, Table S5, per-residue fit, NDM-1 214K
# [11] = Estimated binding constant (Kd), residue 217S, Table S5, per-residue fit, NDM-1 217S
# [12] = Estimated binding constant (Kd), residue 228H, Table S5, per-residue fit, NDM-1 228H
# [13] = Estimated binding constant (Kd), residue 229Y, Table S5, per-residue fit, NDM-1 229Y
# [14] = Estimated binding constant (Kd), residue 230A, Table S5, per-residue fit, NDM-1 230A
# [15] = Estimated binding constant (Kd), residue 248M, Table S5, per-residue fit, NDM-1 248M
# [16] = Estimated binding constant (Kd), residue 251S, Table S5, per-residue fit, NDM-1 251S
# [17] = Estimated binding constant (Kd), residue 254D, Table S5, per-residue fit, NDM-1 254D
# [18] = Estimated binding constant (Kd), residue 255S, Table S5, per-residue fit, NDM-1 255S
# [19] = NDM-1 Kd, NMR chemical shift perturbation, 0-16 equiv. ligand, pH 7.0, 310 K
Compound,IC50 (NDM-1) [mM],Kd (15N-labelled NDM-1; [1]) [mM],Kd (15N-labelled NDM-1; [2]) [mM],Kd (15N-labelled NDM-1; [3]) [mM],Kd (15N-labelled NDM-1; [4]) [mM],Kd (15N-labelled NDM-1; [5]) [mM],Kd (15N-labelled NDM-1; [6]) [mM],Kd (15N-labelled NDM-1; [7]) [mM],Kd (15N-labelled NDM-1; [8]) [mM],Kd (15N-labelled NDM-1; [9]) [mM],Kd (15N-labelled NDM-1; [10]) [mM],Kd (15N-labelled NDM-1; [11]) [mM],Kd (15N-labelled NDM-1; [12]) [mM],Kd (15N-labelled NDM-1; [13]) [mM],Kd (15N-labelled NDM-1; [14]) [mM],Kd (15N-labelled NDM-1; [15]) [mM],Kd (15N-labelled NDM-1; [16]) [mM],Kd (15N-labelled NDM-1; [17]) [mM],Kd (15N-labelled NDM-1; [18]) [mM],Kd (15N-labelled NDM-1; [19]) [mM],further results
"O=C(Cc1ccsc1)NC(C1CCCCN1)P(=O)(O)O (stereo not drawn) [Compound 5j-1, (Piperidin-2-yl(2-(thiophen-3-yl)acetamido)methyl)phos-phonic acid hydrochloride]",0.506 ± 0.333,7.97,12.4,12.4,8.39,15.7,6.63,6.1,3.05,8.41,1.96,8.15,4.94,1.31,8.81,8.64,12.3,9.29,18.6,2.2 ± 0.2,"Kd (15N-labelled NDM-1; Estimated binding constant (Kd), residue 070F, Table S5, per-residue fit, NDM-1 070F): 2.54 mM; Kd (15N-labelled NDM-1; Estimated binding constant (Kd), residue 091T, Table S5, per-residue fit, NDM-1 091T): 2.11 mM; Kd (15N-labelled NDM-1; Estimated binding constant (Kd), residue 108E, Table S5, per-residue fit, NDM-1 108E): 3.54 mM; Kd (15N-labelled NDM-1; Estimated binding constant (Kd), residue 133H_225D, Table S5, per-residue fit, NDM-1 133H_225D): 1.42 mM; Kd (15N-labelled NDM-1; Estimated binding constant (Kd), residue 149A, Table S5, per-residue fit, NDM-1 149A): 3.18 mM; Kd (15N-labelled NDM-1; Estimated binding constant (Kd), residue 152E, Table S5, per-residue fit, NDM-1 152E): 32.9 mM; Kd (15N-labelled NDM-1; Estimated binding constant (Kd), residue 206G, Table S5, per-residue fit, NDM-1 206G): 7.72 mM; Kd (15N-labelled NDM-1; Estimated binding constant (Kd), residue 232S, Table S5, per-residue fit, NDM-1 232S): 21.3 mM; Kd (15N-labelled NDM-1; Estimated binding constant (Kd), residue 249S, Table S5, per-residue fit, NDM-1 249S): 34 mM; IC50 (VIM-2; Enzyme IC50 VIM-2, 0.1 nM VIM-2, 100 μM ZnCl2, nitrocefin substrate): 0.319 ± 0.069 mM; Kd (15N-labelled VIM-2): 0.9 ± 0.1 mM"
"O=C(Cc1cccs1)NC(C1CCCCN1)P(=O)(O)O (stereo not drawn) [Compound 5i-1, (Piperidin-2-yl(2-(thiophen-2-yl)acetamido)methyl)phos-phonic acid hydrochloride]",0.296 ± 0.087,0.93,3.53,8.94,2.47,0.25,0.49,4.99,1.27,2.3,0.57,3.06,3.08,0.34,0.18,0.78,1.82,7.53,9.91,0.5 ± 0.1,"Kd (15N-labelled NDM-1; Estimated binding constant (Kd), residue 191S, Table S5, per-residue fit, NDM-1 191S): 0.12 mM; Kd (15N-labelled NDM-1; Estimated binding constant (Kd), residue 211K, Table S5, per-residue fit, NDM-1 211K): 0.14 mM; Kd (15N-labelled NDM-1; Estimated binding constant (Kd), residue 213S, Table S5, per-residue fit, NDM-1 213S): 0.39 mM; Kd (15N-labelled NDM-1; Estimated binding constant (Kd), residue 252A, Table S5, per-residue fit, NDM-1 252A): 0.48 mM; Enzyme IC50 VIM-2 (VIM-2; 0.1 nM VIM-2, 100 μM ZnCl2, nitrocefin substrate): N.I.; Kd (15N-labelled VIM-2): 1.5 ± 0.2 mM"
